Series [1] has as its target T1, SARS-CoV-2 PLpro (nsp3 1564–1878) (Severe acute respiratory syndrome coronavirus 2, UniProt P0DTD1). The series is described as follows: biochemical. Conditions: read-out: % of control remaining.
Series [2] deals with T1, SARS-CoV-2 PLpro (nsp3 1564–1878). The series is described as follows: biochemical. Conditions: read-out: % of control remaining. The source holds these as a separate data set.
For series [3] the target is unchanged. The series is described as follows: biochemical. The format is biochemical. Particulars: for IC50: fluorescent-based assay; for Z score: screen hits, Table 1; for slope value (of slope value/control) 1.25 µM / slope value (of slope value/control) 3.75 µM: number after the slash is the control without compound; for inhibition at 1.25 µM: read-out: Inhibition (%) 1.25 µM; for inhibition at 3.75 µM: read-out: Inhibition (%) 3.75 µM.

Series [4] addresses T2, SARS-CoV-2 PLpro (Severe acute respiratory syndrome coronavirus 2, UniProt P0DTD1). The format is biochemical. Particulars: 3.75 µM and 10 µM compound, 0.5 µM enzyme, 5 h RT.
Series [5] has as its target 3CLpro (nsp5) (Severe acute respiratory syndrome coronavirus 2, UniProt P0DTD1). The format is biochemical, SARS-CoV-2.
Series [6] concerns SARS-CoV-2. The series can be described thus: microbe, parasite or virus in culture. The format is cell-based.
The subject of series [7] is VERO E6 cells.
For series [8], the target named is T1, SARS-CoV-2 PLpro (nsp3 1564–1878). The series is described as follows: biochemical. Conditions: low concentration screen, read-out: % of control remaining. Details: FRET-quenched peptide (Pro3) cleavage by PLpro, 10 min pre-incubation, slope over 20 min, normalised to no-compound control.
Series [9] has the same target. The series can be described thus: biochemical. Details: FRET-quenched peptide (Pro3) cleavage by PLpro, 10 min pre-incubation, slope over 20 min, normalised to no-compound control. Conditions: high concentration screen, read-out: % of control remaining.
Series [10] has as its system PLpro from SARS-CoV-1. Particulars: cited from earlier work.
Series [11] deals with T2, SARS-CoV-2 PLpro. The format is biochemical. Particulars: 10 µM inhibitor, 50 nM PLpro, 1 µM substrate, 1 h 25°C.
Series [12] has as its target T2, SARS-CoV-2 PLpro. The format is biochemical. Particulars: 10 µM inhibitor, 50 nM PLpro, 1 µM substrate, 1 h 25°C. The source holds these as a separate data set.
In series [13] the test system is VERO E6 cells. The series can be described thus: Cytotoxicity in the cell culture-based assay.
Series [14] has as its system SARS-CoV-1/-2 PLpro. Particulars: non-covalent inhibitor; cited from earlier work.
Setting [15] is: screen, 1.25 µM compound, 1.75 µM enzyme, 20 µM substrate.
[16] abbreviates: screen, 3.75 µM compound, 1.75 µM enzyme, 20 µM substrate.
Setting [17] is: VERO E6 cells, compound alone, read-out: EC50 viral proliferation.
The mark [18] stands for this setting: Severe acute respiratory syndrome coronavirus 2, Vero C1008, VERO E6 cells, compound alone, read-out: EC50 viral proliferation.
[19] abbreviates: Severe acute respiratory syndrome coronavirus 2, Vero C1008, VERO E6 cells, compound plus 0.5 µM remdesivir, read-out: EC50 viral proliferation with remdesivir.

Values joined by “and” are separate entries in the source; they are usually repeats but may differ in a detail not shown here. Equal entries are not always repeated. “Also recorded” adds a separate entry of the source. Where two headings read alike, the source gives them in different places.

For the molecule `C[N+]1(C)CCc2cc3c(cc2[C@H]1[C@@H]1OC(=O)c2c1ccc1c2OCO1)OCO3` [(-)-Bicuculline methbromide, 1(S), 9(R)], the remaining activity at 1.25 µM in series [1] was 100%. Moreover, the remaining activity at 3.75 µM in series [2] was found to be 103%.

What is called IC50 is the concentration at which inhibition is half-maximal. A lower IC50 goes with greater potency in that assay. For `Cc1ccc(NC2=CC(=O)c3sc(C)nc3C2=O)cc1` [Cdk4 Inhibitor III], in series [3], the IC50 was 0.39 µM and 0.393 µM; the Z score is −5.34. Also, the “Inhibition (%) 1.25 µM” value in [3] (setting [15]) is on record as 19%. For the same molecule, the “slope value (of slope value/control) 1.25 µM” value in series [3] (screen, 1.25 µM compound) worked out at 367. The “Inhibition (%) 3.75 µM” value in series [3] (setting [16]) is 39%. Moreover, the “slope value (of slope value/control) 3.75 µM” value in series [3] (screen, 3.75 µM compound) stood at 302. Moreover, the “Inhibition of PLpro cleavage of the substrate (gel-based)” value in series [4] is recorded as “show inhibition; also recorded: strongly inhibited”. Besides, in [5] (3 and 10 µM compound), the “Inhibition of 3CLpro activity (gel-based)” value is recorded as “did not inhibit”. Also, the EC50 in [6] (setting [17]) came out at 3.4 µM. Besides, the Cytotoxicity result in [7] was “cytotoxic in the low micromolar range”. Also, the remaining activity at 1.25 µM in series [8] (Well no.=2408) is 81.1%. Moreover, the remaining activity at 3.75 µM in [9] (Well no.=2408) was found to be 61.4%.

As to `C[C@H]1COC2=C1C(=O)C(=O)c1c2ccc2c1CCCC2(C)C` [Cryptotanshinone, cryptotanshinone], in series [4], the “Inhibition of PLpro cleavage of the substrate (gel-based)” value was “show inhibition; also recorded: inhibited cleavage, but only at the higher concentration”. In addition, in series [5] (3 and 10 µM compound), the “Inhibition of 3CLpro activity (gel-based)” value is “did not inhibit”. Also, the EC50 in series [6] (setting [18]) turned out to be 223 µM. In addition, the “Concentration below which viral growth was not inhibited” value in series [6] (VERO E6 cells) is given as at least 200 µM. The “Inhibition of SARS-CoV-1 PLpro” value in series [10] is listed as “better inhibitors of this enzyme than dihydrotanshinone I”. Besides, the remaining activity at 1.25 µM in series [8] (Well no.=3557) was found to be 100%. Also, the remaining activity at 3.75 µM in [9] (Well no.=3557) stood at 103%.

What is called inhibition is the share of the control response that was lost under treatment. Regarding `Cc1cccc2c3c(ccc12)C1=C(C(=O)C3=O)[C@@H](C)CO1` [Dihydrotanshinone I], the IC50 in series [3] worked out at 0.586 µM; in series [3] (listed as dihydrotanshione I) it was 0.59 µM. Moreover, in series [3], the Z score is recorded as −4.52. For the same molecule, the inhibition at 1.25 µM in series [3] (setting [15]) stood at 0%. Besides, in series [3] (screen, 1.25 µM compound), the “slope value (of slope value/control) 1.25 µM” value is given as 449. The inhibition at 3.75 µM in [3] (setting [16]) is 33%. The “slope value (of slope value/control) 3.75 µM” value in series [3] (screen, 3.75 µM compound) was 329. Besides, the “Inhibition of PLpro cleavage of the substrate (gel-based)” value in series [4] is on record as “show inhibition; also recorded: strongly inhibited”. In series [5] (3 and 10 µM compound), the “Inhibition of 3CLpro activity (gel-based)” value is on record as “did not inhibit”. In addition, the “Inhibition of K48-linked Ub3 cleavage (DUB activity)” value (“Inhibition … (DUB activity)” below) in series [11] is “potent inhibition; also recorded: inhibited strongly”. For the same molecule, the “Inhibition of pro-ISG15 cleavage (deISGylating activity)” value (“Inhibition of pro-ISG15 cleavage” for short) in series [12] is listed as “potent inhibition”. In addition, the results for the EC50 in series [6] (setting [18]), in series [6] (setting [19]) and in series [6] (setting [17]) were 8 µM, 5.35 µM and 8.15 µM, respectively. Also, the “Inhibition of SARS-CoV-1 PLpro” value in series [10] is on record as “inhibit”. Also, in series [13], the Cytotoxicity result is listed as “did not exhibit much cytotoxicity”.

Consider `Cc1ccc(N)cc1C(=O)N[C@H](C)c1cccc2ccccc12` [GRL-0617], for which the EC50 worked out at 32.6 µM in series [6] (read-out: EC50 viral proliferation) and 32.2 µM in series [6] (read-out: EC50 viral proliferation with remdesivir). In addition, in series [7], the Cytotoxicity entry is on record as “some cell toxicity at higher concentrations”. For the same molecule, the “Effectiveness against SARS-CoV-1/-2 PLpro” value in series [14] is listed as “effective”.

For `C=C1C(=O)O[C@@H]2[C@H]3O[C@]3(C)CC/C=C(\C)CC[C@@H]12` [Parthenolide], the remaining activity at 1.25 µM in [1] came to 96.7%. For the same molecule, in series [2], the remaining activity at 3.75 µM amounted to 97.3%.

Take `Cc1cc2nc3c(=O)[nH]c(=O)nc-3n(C)c2cc1C=O` [Ro 08-2750, 2,3,4,10-Tetrahydro-7,10-dimethyl-2,4-dioxobenzo[g]pteridine-8-carboxaldehyde]: the IC50 in series [3] is 0.53 µM and 0.531 µM. The molecule further showed a Z score in series [3] of −5.79. Further, in [3] (setting [15]), the inhibition at 1.25 µM came out at 19%. For the same molecule, the “slope value (of slope value/control) 1.25 µM” value in series [3] (screen, 1.25 µM compound) is on record as 366. Besides, the inhibition at 3.75 µM in [3] (setting [16]) was 42%. Besides, in series [3] (screen, 3.75 µM compound), the “slope value (of slope value/control) 3.75 µM” value stood at 287. In series [4], the “Inhibition of PLpro cleavage of the substrate (gel-based)” value is “show inhibition; also recorded: strongly inhibited”. Moreover, the “Inhibition of 3CLpro activity (gel-based)” value in series [5] (3 and 10 µM compound) is “did not inhibit”. Further, the “Inhibition … (DUB activity)” value in [11] is given as “moderate inhibition; also recorded: moderately”. In addition, in [12], the “Inhibition of pro-ISG15 cleavage” value is on record as “moderate inhibition”. Moreover, the EC50 in series [6] (setting [18]) came out at 20 µM; in series [6] (setting [19]), 22.7 µM. Moreover, the Cytotoxicity entry in series [7] is recorded as “some cell toxicity at higher concentrations”.

For `Cc1coc2c1C(=O)C(=O)c1c-2ccc2c1CCCC2(C)C` [Tanshinone IIA, tanshinone IIA], the “Inhibition of PLpro cleavage of the substrate (gel-based)” value in series [4] is on record as “inhibited cleavage, but only at the higher concentration”; in [4] (listed as tanshinone IIA) it was “show inhibition”. Besides, in series [5], the “Inhibition of 3CLpro activity (gel-based)” value is listed as “did not inhibit”. Besides, the EC50 in series [6] (setting [18]) was 1150 µM. In [10], the “Inhibition of SARS-CoV-1 PLpro” value is “better inhibitors of this enzyme than dihydrotanshinone I”. The remaining activity at 1.25 µM in series [8] (Well no.=3178) is 105%; in series [8] (Well no.=4084), 99.4%. Moreover, the remaining activity at 3.75 µM was determined as 105% in series [9] (Well no.=3178) and 89.9% in series [9] (Well no.=4084).

In [3], `CC1(C)CCC2=C(O1)c1ccccc1C(=O)C2=O` [beta-Lapachone] came in with a 50% inhibitory concentration (IC50) of 0.61 µM and a Z score of −4.66. Besides, the inhibition at 1.25 µM in series [3] (setting [15]) stood at 7%. For the same molecule, in series [3] (screen, 1.25 µM compound), the “slope value (of slope value/control) 1.25 µM” value was 420. In series [3] (setting [16]), the inhibition at 3.75 µM is 34%. Also, the “slope value (of slope value/control) 3.75 µM” value in series [3] (screen, 3.75 µM compound) is reported as 322. In series [4], the “Inhibition of PLpro cleavage of the substrate (gel-based)” value is listed as “show inhibition; also recorded: strongly inhibited”. Also, the “Inhibition of 3CLpro activity (gel-based)” value in [5] is “did not inhibit”. The “Inhibition … (DUB activity)” value in series [11] is recorded as “potent inhibition; also recorded: inhibited strongly”. In series [12], the “Inhibition of pro-ISG15 cleavage” value is recorded as “potent inhibition”. Further, the EC50 in series [6] (setting [18]) was found to be 4.39 µM. Further, in [13], the Cytotoxicity entry is “cytotoxic in the low micromolar range”.

(Values after paper PMC8286840, “Identifying SARS-CoV-2 antiviral compounds by screening for small molecule inhibitors of Nsp3 papain-like protease” (Biochemical Journal, 2021).)
